7 compounds from ChEMBL document CHEMBL4616668, “Discovery of a High Affinity, Orally Bioavailable Macrocyclic FXIa Inhibitor with Antithrombotic Activity in Preclinical Species” (J Med Chem, 2020) can be followed below.

Structures are written as SMILES. pKi: −log10 of the molar value.

Sequence of Coagulation factor XI (P03951 19-387 limits assumed): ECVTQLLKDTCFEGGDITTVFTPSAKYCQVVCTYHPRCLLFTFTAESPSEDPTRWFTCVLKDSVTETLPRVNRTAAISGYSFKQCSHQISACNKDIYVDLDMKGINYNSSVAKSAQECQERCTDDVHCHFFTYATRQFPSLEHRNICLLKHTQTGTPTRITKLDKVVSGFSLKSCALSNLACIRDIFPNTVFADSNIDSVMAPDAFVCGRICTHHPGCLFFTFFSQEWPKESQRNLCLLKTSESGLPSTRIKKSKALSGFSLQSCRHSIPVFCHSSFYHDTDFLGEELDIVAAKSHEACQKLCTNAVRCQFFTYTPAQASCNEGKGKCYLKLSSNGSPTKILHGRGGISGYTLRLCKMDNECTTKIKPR
Sequence of Coagulation factor XI (P03951 388-625 limits assumed): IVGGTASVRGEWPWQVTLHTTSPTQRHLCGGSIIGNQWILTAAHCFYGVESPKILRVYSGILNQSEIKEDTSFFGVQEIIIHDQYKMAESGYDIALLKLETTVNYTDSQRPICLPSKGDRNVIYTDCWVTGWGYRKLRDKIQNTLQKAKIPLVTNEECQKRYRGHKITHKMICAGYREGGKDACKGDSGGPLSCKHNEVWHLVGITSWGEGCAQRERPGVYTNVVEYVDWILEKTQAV

System in one data set: not listed separately
The experiment in a line: Half life in rat liver microsomes.
Details: not given
It counts as ADME, Microsome. On the technique in general: Liver microsomes are vesicles of endoplasmic reticulum, rich in cytochrome P450 enzymes.
Usually half-life stands for the time in which the quantity being followed falls by half. The compound `COC(=O)Nc1ccc2c(c1)NC(=O)[C@H](C)CCC[C@H](N1CC[C@H](c3c(F)ccc(Cl)c3F)OC1=O)c1ccnc-2c1` had a half-life of 29 min.
`COC(=O)Nc1ccc2c(c1)NC(=O)[C@H](C)CCC[C@H](N1CC(=O)N(c3c(F)ccc(Cl)c3F)CC1=O)c1cc-2ccn1` displayed a half-life of 55 min.
Still for that read-out and setting: next, `COC(=O)Nc1ccc2c(c1)NC(=O)[C@H](C)CCC[C@H](N1CC[C@H](c3c(F)ccc(Cl)c3F)OC1=O)c1cc-2ccn1`: 35 min.
On the same count and under the same terms, next, `COC(=O)Nc1ccc2c(c1)NC(=O)[C@H](C)CCC[C@H](N1CCC(c3c(F)ccc(Cl)c3F)CC1=O)c1cc-2ccn1` (mixture of isomers): 15 min.

The subject of a further data set is Plasma. In words: Anticoagulant activity in human plasma assessed as activated partial thromboplastin time. It counts as functional.
Details: not given
Regarding `COC(=O)Nc1ccc2c(c1)NC(=O)[C@H](C)CCC[C@H](N1CCC(c3c(F)ccc(Cl)c3F)=CC1=O)c1cc-2ccn1`, the EC1.5 was 1.8 µM.
The same measure, in the same setting: the result for `COC(=O)Nc1ccc2c(c1)NC(=O)[C@H](C)CCC[C@H](N1CC[C@H](c3c(F)ccc(Cl)c3F)OC1=O)c1ccnc-2c1` reads 0.5 µM; that for `COC(=O)Nc1ccc2c(c1)NC(=O)[C@H](C)CCC[C@H](N1CC(=O)N(c3c(F)ccc(Cl)c3F)CC1=O)c1cc-2ccn1`, 1.4 µM.
With `COC(=O)Nc1ccc2c(c1)NC(=O)[C@H](C)CCC[C@H](N1CC[C@H](c3c(F)ccc(Cl)c3F)OC1=O)c1cc-2ccn1`, the EC1.5 is 0.5 µM.
On to `COC(=O)Nc1ccc2c(c1)NC(=O)[C@H](C)CCC[C@H](N1CCC(c3c(F)ccc(Cl)c3F)CC1=O)c1cc-2ccn1` (mixture of isomers), for which the EC1.5 came out at 2.8 µM.

System in the next data set: not listed separately
In words: Half life in human liver microsomes. The data set is classed as ADME, Microsome.
Details: not given
Take `COC(=O)Nc1ccc2c(c1)NC(=O)[C@H](C)CCC[C@H](N1CC[C@H](c3c(F)ccc(Cl)c3F)OC1=O)c1ccnc-2c1`: the half-life stood at 36 min.
The same measure, in the same setting: next, `COC(=O)Nc1ccc2c(c1)NC(=O)[C@H](C)CCC[C@H](N1CC(=O)N(c3c(F)ccc(Cl)c3F)CC1=O)c1cc-2ccn1`: 75 min; `COC(=O)Nc1ccc2c(c1)NC(=O)[C@H](C)CCC[C@H](N1CC[C@H](c3c(F)ccc(Cl)c3F)OC1=O)c1cc-2ccn1`: 56 min; `COC(=O)Nc1ccc2c(c1)NC(=O)[C@H](C)CCC[C@H](N1CCC(c3c(F)ccc(Cl)c3F)CC1=O)c1cc-2ccn1` (mixture of isomers): 8 min.

System in the next data set: not listed separately
The experiment in a line: Half life in dog liver microsomes. It counts as ADME, Canis lupus familiaris, Microsome.
Details: not given
`COC(=O)Nc1ccc2c(c1)NC(=O)[C@H](C)CCC[C@H](N1CC[C@H](c3c(F)ccc(Cl)c3F)OC1=O)c1ccnc-2c1` displayed a half-life of 44 min.
On the same count and under the same terms, the result for `COC(=O)Nc1ccc2c(c1)NC(=O)[C@H](C)CCC[C@H](N1CC(=O)N(c3c(F)ccc(Cl)c3F)CC1=O)c1cc-2ccn1` reads 72 min; that for `COC(=O)Nc1ccc2c(c1)NC(=O)[C@H](C)CCC[C@H](N1CC[C@H](c3c(F)ccc(Cl)c3F)OC1=O)c1cc-2ccn1`, 27 min.
`COC(=O)Nc1ccc2c(c1)NC(=O)[C@H](C)CCC[C@H](N1CCC(c3c(F)ccc(Cl)c3F)CC1=O)c1cc-2ccn1` (mixture of isomers) gave a half-life of 13 min.

System in another data set: not listed separately
In words: Toxicity in New Zealand White rabbit model of cuticle bleeding time assessed as increase in cuticle bleeding time at 4 mg/kg/hr dosed as continuous intravenous infusion 30 to 60 mins prior to cuticle transection relative to control. It counts as organism-based, Oryctolagus cuniculus. As to conditions: in vivo.
Turning to `CC(=O)Oc1ccccc1C(=O)O` [ASPIRIN], the “fold change (FC)” value was found to be 2.3.

In the next data set the test system is Plasma. The experiment in a line: Anticoagulant activity in rabbit plasma assessed as activated partial thromboplastin time. The data set is classed as functional, Oryctolagus cuniculus.
Details: not given
As for `COC(=O)Nc1ccc2c(c1)NC(=O)[C@H](C)CCC[C@H](N1CCC(c3c(F)ccc(Cl)c3F)=CC1=O)c1cc-2ccn1.O=C(O)C(F)(F)F`, the EC1.5 worked out at 26 µM.

A further data set concerns the target Coagulation factor XI (Homo sapiens, UniProt P03951). The experiment in a line: Inhibition of human factor11a using pyro-Glu-Pro-Arg-pNA(para-nitroaniline) substrate by spectrophotometry.
Details: not given
By pKi is commonly meant −log10 of the Ki, conventionally taken in molar units. `COC(=O)Nc1ccc2c(c1)NC(=O)[C@H](C)CCC[C@H](N1CC[C@H](c3c(F)ccc(Cl)c3F)OC1=O)c1ccnc-2c1`: the pKi is 8.80.
Still for that read-out and setting: the result for `COC(=O)Nc1ccc2c(c1)NC(=O)[C@H](C)CCC[C@H](N1CC(=O)N(c3c(F)ccc(Cl)c3F)CC1=O)c1cc-2ccn1` reads 8.31.
In the case of `COC(=O)Nc1ccc2c(c1)NC(=O)[C@H](C)CCC[C@H](N1CC[C@H](c3c(F)ccc(Cl)c3F)OC1=O)c1cc-2ccn1`, the pKi was 9.22.
The same measure, in the same setting: the result for `COC(=O)Nc1ccc2c(c1)NC(=O)[C@H](C)CCC[C@H](N1CCC(c3c(F)ccc(Cl)c3F)CC1=O)c1cc-2ccn1` (mixture of isomers) reads 9.05.

System in a further data set: not listed separately
The experiment in a line: Oral bioavailability in Sprague-Dawley rat at […]. It counts as ADME, organism-based. As to conditions: in vivo.
The bioavailability is the share of a dose that reaches the circulation, judged against a reference dose that is usually intravenous. As for `COC(=O)Nc1ccc2c(c1)NC(=O)[C@H](C)CCC[C@H](N1CC[C@H](c3c(F)ccc(Cl)c3F)OC1=O)c1ccnc-2c1`, the bioavailability was found to be 48%.
In the case of `COC(=O)Nc1ccc2c(c1)NC(=O)[C@H](C)CCC[C@H](N1CC[C@H](c3c(F)ccc(Cl)c3F)OC1=O)c1cc-2ccn1`, the bioavailability was determined as 37%.

System in a further data set: not listed separately
In words: Clearance in Sprague-Dawley rat at 0.6 mg/kg, iv. The data set is classed as ADME, organism-based. As to conditions: in vivo.
What is called clearance is a measure of how efficiently the substance is removed, as volume per time. With `COC(=O)Nc1ccc2c(c1)NC(=O)[C@H](C)CCC[C@H](N1CC[C@H](c3c(F)ccc(Cl)c3F)OC1=O)c1ccnc-2c1`, the clearance was found to be 33 mL/min/kg.
`COC(=O)Nc1ccc2c(c1)NC(=O)[C@H](C)CCC[C@H](N1CC[C@H](c3c(F)ccc(Cl)c3F)OC1=O)c1cc-2ccn1`: the clearance was 23 mL/min/kg.

System in a further data set: not listed separately
In words: Half life in cynomolgus monkey liver microsomes. It counts as ADME, Macaca fascicularis, Microsome.
Details: not given
As for `COC(=O)Nc1ccc2c(c1)NC(=O)[C@H](C)CCC[C@H](N1CC[C@H](c3c(F)ccc(Cl)c3F)OC1=O)c1ccnc-2c1`, the half-life is 9 min.
As for `COC(=O)Nc1ccc2c(c1)NC(=O)[C@H](C)CCC[C@H](N1CC(=O)N(c3c(F)ccc(Cl)c3F)CC1=O)c1cc-2ccn1`, the half-life turned out to be 27 min.
On the same count and under the same terms, next, `COC(=O)Nc1ccc2c(c1)NC(=O)[C@H](C)CCC[C@H](N1CC[C@H](c3c(F)ccc(Cl)c3F)OC1=O)c1cc-2ccn1`: 12 min; `COC(=O)Nc1ccc2c(c1)NC(=O)[C@H](C)CCC[C@H](N1CCC(c3c(F)ccc(Cl)c3F)CC1=O)c1cc-2ccn1` (mixture of isomers): 3 min.
